The values that follow come from article PMC5485725, “QueF-Like, a Non-Homologous Archaeosine Synthase from the Crenarchaeota” (Biomolecules, 2017).

The target of the experiment is T1, QueF-like (QueF-L) from Pyrobaculum calidifontis (Pyrobaculum calidifontis, UniProt A3MSP1).
T1 construct: codon-optimized synthetic gene in FactorXa/LIC vector (pLBI14), expressed in E. coli BL21(DE3); N-terminal His6 tag cut by Factor Xa; starts at Met1 (primer encodes MLKVSK..., ends ...PPVYI); decamer
T1 sequence (A3MSP1 1-109): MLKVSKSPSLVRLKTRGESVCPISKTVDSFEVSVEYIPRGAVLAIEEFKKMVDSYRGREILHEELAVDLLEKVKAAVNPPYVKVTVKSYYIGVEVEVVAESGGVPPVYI
Briefly: UV-Vis titration of thioimide absorbance at […] nm. It is filed as binding. Particulars: read-out: apparent KD.

Turning to `N#Cc1c[nH]c2nc(N)[nH]c(=O)c12` [preQ0], the Kd was determined as 8 µM.
